Legend:
Assay in all cases: biochemical binding or enzymatic assay
ALK = molecular target: T1, ALK (Homo sapiens, UniProt Q9UM73); details: Novartis
T1 construct: purchased DiscoveRx KINOMEscan
Description: (§1) Finally, the selectivity profile of i-CDK9 toward other non-CDK kinases was also assessed using the KINOMEscan platform. […] Except for CLK4, for which no suitable assay was available, the rest of the kinases plus a selected group of others were re-examined for the concentration-dependent effect of i-CDK9 in either functional kinase assays or binding assays. […] Indeed, it has recently been reported that DYRK1A acts as a Pol II CTD Kinase at its target gene promoters ([Di Vona et al., 2015]).

BTK = molecular target: T2, BTK (Homo sapiens, UniProt Q06187); details: Novartis
T2 construct: purchased DiscoveRx KINOMEscan
T2 sequence (Q06187 whole entry): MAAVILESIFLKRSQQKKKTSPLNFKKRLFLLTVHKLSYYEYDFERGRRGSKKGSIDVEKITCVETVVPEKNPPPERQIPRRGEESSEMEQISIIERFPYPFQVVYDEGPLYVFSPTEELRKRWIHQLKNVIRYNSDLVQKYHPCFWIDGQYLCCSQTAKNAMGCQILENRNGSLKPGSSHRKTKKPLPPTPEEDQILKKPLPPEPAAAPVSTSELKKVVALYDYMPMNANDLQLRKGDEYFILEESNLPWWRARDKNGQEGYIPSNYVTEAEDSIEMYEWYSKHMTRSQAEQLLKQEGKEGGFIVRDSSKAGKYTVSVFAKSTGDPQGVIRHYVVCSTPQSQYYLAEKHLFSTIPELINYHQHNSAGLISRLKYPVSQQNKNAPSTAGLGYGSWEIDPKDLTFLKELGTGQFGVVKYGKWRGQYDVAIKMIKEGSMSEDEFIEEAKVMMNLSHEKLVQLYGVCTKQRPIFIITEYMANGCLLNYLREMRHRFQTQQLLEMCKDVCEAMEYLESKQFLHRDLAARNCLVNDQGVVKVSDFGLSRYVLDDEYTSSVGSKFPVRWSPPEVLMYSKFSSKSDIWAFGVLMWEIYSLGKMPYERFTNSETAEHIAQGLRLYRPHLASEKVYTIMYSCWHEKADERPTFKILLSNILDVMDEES
Description: as §1

CAMK2D = molecular target: T3, CAMK2D (Homo sapiens, UniProt Q13557); details: Novartis
T3 construct: purchased DiscoveRx KINOMEscan
Description: as §1

CSK = molecular target: T4, CSK (Homo sapiens, UniProt P41240); details: Novartis
T4 construct: purchased DiscoveRx KINOMEscan
Description: as §1

EGFR = molecular target: T5, EGFR (Homo sapiens, UniProt P00533); details: Novartis
T5 construct: purchased DiscoveRx KINOMEscan
Description: as §1

EPHA4 = molecular target: T6, EPHA4 (Homo sapiens, UniProt P54764); details: Novartis
T6 construct: purchased DiscoveRx KINOMEscan
Description: as §1

EPHB4 = molecular target: T7, EPHB4 (Homo sapiens, UniProt P54760); details: Novartis
T7 construct: purchased DiscoveRx KINOMEscan
T7 sequence (P54760 16-987): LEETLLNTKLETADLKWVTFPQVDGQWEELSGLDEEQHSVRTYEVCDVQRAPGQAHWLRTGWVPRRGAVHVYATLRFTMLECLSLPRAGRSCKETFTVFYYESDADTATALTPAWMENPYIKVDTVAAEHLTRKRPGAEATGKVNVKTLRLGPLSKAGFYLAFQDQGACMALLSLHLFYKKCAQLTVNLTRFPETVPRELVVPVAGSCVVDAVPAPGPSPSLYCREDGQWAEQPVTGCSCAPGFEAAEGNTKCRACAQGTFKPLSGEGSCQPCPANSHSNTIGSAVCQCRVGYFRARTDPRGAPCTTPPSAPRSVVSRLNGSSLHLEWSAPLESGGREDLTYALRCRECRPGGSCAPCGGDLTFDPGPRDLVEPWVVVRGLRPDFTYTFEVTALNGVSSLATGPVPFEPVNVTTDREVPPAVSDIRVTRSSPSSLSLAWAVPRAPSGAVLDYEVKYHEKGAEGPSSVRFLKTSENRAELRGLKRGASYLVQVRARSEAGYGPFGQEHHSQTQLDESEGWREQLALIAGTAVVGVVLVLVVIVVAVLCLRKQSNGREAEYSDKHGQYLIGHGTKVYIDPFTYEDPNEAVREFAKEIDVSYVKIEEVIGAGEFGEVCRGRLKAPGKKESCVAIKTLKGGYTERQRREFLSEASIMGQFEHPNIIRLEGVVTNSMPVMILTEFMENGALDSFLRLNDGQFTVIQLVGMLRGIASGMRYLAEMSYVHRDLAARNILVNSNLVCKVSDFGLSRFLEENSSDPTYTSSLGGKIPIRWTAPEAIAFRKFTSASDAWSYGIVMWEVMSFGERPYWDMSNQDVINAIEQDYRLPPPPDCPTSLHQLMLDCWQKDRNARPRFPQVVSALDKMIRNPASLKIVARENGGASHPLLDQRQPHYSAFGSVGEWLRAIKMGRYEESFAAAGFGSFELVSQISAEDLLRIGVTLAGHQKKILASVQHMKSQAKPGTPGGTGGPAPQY
Description: as §1

ERK1 = molecular target: T8, ERK1 (Homo sapiens, UniProt P27361); details: Novartis
T8 construct: purchased DiscoveRx KINOMEscan
Description: as §1

FAK = molecular target: T9, FAK (Homo sapiens, UniProt Q05397); details: Novartis
T9 construct: purchased DiscoveRx KINOMEscan
T9 sequence (Q05397 whole entry): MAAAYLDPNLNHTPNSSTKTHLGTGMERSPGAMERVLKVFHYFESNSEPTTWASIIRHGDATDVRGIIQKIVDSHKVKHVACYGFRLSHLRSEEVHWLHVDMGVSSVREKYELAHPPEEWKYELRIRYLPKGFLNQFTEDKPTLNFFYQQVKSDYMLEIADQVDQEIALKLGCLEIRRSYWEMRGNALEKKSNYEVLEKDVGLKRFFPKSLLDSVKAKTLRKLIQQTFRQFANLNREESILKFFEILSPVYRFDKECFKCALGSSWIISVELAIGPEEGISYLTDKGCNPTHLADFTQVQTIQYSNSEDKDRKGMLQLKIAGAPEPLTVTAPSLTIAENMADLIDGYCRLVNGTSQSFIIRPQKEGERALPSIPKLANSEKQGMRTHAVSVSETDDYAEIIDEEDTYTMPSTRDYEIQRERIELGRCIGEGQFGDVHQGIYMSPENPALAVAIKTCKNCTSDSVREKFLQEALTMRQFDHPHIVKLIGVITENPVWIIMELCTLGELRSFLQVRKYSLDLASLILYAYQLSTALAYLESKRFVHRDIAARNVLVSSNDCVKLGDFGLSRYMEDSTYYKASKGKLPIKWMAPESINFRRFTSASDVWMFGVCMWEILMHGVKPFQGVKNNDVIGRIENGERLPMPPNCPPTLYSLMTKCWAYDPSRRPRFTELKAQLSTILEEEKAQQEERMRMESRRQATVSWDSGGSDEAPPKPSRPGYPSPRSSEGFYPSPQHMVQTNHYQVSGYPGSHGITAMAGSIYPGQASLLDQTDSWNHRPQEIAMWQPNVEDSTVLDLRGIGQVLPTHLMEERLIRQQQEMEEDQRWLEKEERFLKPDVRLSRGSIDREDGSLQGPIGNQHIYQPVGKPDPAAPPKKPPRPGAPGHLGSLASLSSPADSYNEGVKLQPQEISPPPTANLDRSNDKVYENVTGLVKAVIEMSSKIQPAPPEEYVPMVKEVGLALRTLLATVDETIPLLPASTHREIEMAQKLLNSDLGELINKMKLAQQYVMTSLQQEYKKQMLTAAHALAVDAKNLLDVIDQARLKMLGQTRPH
Description: as §1

FGFR1 = molecular target: T10, FGFR1 (Homo sapiens, UniProt P11362); details: Novartis
T10 construct: purchased DiscoveRx KINOMEscan
Description: as §1

FGFR3 = molecular target: T11, FGFR3 (Homo sapiens, UniProt P22607); details: Novartis
T11 construct: purchased DiscoveRx KINOMEscan
T11 sequence (P22607 23-806): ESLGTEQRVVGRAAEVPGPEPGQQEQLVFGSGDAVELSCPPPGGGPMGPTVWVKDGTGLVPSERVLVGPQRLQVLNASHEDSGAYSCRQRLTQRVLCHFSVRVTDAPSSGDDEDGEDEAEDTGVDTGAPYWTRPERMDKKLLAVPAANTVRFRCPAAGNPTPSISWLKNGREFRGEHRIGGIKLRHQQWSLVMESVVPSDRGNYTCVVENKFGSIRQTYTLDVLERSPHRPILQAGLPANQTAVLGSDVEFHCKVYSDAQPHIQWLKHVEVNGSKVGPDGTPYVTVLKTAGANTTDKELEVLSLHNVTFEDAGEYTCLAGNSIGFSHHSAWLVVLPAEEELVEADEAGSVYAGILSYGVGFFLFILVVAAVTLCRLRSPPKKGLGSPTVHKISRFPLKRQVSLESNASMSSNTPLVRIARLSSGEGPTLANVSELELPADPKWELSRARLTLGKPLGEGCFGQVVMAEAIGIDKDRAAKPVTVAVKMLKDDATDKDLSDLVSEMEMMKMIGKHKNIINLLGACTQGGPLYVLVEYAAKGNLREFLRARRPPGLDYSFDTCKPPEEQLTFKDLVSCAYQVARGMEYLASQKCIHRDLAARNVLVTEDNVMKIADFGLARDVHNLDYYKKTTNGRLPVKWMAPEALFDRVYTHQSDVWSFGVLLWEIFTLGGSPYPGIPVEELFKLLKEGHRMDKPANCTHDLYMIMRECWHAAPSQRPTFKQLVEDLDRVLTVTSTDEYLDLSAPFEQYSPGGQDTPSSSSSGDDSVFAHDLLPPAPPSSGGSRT
Description: as §1

FLT3 = molecular target: T12, FLT3 (Homo sapiens, UniProt P36888); details: Novartis
T12 construct: purchased DiscoveRx KINOMEscan
Description: as §1

KIT = molecular target: T13, KIT (Homo sapiens, UniProt P10721); details: Novartis
T13 construct: purchased DiscoveRx KINOMEscan
Description: as §1

LCK = molecular target: T14, LCK (Homo sapiens, UniProt P06239); details: Novartis
T14 construct: purchased DiscoveRx KINOMEscan
T14 sequence (P06239 whole entry): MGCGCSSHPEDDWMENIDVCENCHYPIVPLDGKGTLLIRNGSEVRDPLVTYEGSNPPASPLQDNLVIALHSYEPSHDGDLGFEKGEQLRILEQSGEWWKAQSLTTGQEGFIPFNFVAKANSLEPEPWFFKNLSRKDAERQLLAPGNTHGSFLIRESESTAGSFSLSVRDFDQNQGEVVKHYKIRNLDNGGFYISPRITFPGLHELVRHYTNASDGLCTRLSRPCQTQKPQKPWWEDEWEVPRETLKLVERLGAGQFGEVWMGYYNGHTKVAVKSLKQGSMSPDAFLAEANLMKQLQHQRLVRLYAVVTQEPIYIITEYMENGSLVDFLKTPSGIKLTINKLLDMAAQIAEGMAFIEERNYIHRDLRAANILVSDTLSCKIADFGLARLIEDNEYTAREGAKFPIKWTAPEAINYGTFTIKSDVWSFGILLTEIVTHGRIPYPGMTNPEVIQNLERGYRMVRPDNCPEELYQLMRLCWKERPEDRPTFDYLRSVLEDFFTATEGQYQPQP
Description: as §1

LYN = molecular target: T15, LYN (Homo sapiens, UniProt P07948); details: Novartis
T15 construct: purchased DiscoveRx KINOMEscan
Description: as §1

MAPKAPK2 = molecular target: T16, MAPKAPK2 (Homo sapiens, UniProt P49137); details: Novartis
T16 construct: purchased DiscoveRx KINOMEscan
Description: as §1

MET = molecular target: T17, MET (Homo sapiens, UniProt P08581); details: Novartis
T17 construct: purchased DiscoveRx KINOMEscan
T17 sequence (P08581 25-1390): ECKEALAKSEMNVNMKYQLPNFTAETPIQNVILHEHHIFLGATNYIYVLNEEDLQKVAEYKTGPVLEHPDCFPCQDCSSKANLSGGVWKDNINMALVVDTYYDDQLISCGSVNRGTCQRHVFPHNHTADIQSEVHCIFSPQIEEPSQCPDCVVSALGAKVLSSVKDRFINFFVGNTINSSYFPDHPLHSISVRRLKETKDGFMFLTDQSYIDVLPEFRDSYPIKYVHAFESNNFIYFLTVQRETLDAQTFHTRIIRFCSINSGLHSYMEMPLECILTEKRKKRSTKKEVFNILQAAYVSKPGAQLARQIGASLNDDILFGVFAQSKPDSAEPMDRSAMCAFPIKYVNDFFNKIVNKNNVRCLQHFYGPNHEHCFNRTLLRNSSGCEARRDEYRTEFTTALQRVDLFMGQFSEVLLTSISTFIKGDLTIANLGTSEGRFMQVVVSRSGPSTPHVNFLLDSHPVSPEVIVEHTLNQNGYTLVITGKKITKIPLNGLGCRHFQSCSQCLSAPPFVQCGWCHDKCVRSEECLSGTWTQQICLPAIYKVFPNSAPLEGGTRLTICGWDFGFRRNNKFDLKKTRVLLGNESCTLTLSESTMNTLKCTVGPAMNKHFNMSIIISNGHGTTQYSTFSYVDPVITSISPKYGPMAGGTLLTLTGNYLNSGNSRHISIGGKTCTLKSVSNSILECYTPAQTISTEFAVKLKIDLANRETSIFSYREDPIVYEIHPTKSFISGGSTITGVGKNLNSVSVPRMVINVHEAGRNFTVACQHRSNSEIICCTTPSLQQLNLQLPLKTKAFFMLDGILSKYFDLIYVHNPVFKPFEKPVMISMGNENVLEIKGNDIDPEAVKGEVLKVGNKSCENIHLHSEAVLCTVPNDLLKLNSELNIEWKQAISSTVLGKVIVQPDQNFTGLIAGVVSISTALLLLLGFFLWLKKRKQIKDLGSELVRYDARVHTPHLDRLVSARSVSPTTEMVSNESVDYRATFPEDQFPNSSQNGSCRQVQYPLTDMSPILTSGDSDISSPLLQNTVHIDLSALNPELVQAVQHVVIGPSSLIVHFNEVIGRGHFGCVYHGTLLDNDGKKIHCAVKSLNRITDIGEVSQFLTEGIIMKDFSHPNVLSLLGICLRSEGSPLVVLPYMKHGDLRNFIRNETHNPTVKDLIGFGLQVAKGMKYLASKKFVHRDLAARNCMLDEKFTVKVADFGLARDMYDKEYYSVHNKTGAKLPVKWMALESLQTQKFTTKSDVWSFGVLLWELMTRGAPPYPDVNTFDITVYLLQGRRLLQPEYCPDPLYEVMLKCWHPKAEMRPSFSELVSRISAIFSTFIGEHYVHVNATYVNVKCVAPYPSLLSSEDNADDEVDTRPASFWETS
Description: as §1

PAK2 = molecular target: T18, PAK2 (Homo sapiens, UniProt Q13177); details: Novartis
T18 construct: purchased DiscoveRx KINOMEscan
Description: as §1

PCTK2 = molecular target: T19, PCTK2 (Homo sapiens, UniProt Q00537); details: Ambit
T19 construct: purchased DiscoveRx KINOMEscan
T19 sequence (Q00537 whole entry): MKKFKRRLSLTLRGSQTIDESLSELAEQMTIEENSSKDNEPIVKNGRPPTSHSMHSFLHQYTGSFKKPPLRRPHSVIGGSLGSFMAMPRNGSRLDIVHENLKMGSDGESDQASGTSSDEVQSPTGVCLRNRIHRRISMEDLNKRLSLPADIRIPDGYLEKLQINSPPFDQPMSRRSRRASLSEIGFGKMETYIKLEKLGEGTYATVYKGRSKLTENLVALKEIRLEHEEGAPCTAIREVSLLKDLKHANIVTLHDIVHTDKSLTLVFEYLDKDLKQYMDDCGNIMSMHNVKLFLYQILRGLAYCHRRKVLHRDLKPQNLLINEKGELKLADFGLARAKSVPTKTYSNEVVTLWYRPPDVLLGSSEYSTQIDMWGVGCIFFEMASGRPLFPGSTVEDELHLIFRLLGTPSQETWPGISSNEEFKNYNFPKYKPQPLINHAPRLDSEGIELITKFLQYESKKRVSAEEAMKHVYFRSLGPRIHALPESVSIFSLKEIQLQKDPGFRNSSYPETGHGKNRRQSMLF
Description: as §1

PCTK3 = molecular target: T20, PCTK3 (Homo sapiens, UniProt Q07002); details: Ambit
T20 construct: purchased DiscoveRx KINOMEscan
Description: as §1

PDGFRA = molecular target: T21, PDGFRA (Homo sapiens, UniProt P16234); details: Novartis
T21 construct: purchased DiscoveRx KINOMEscan
Description: as §1

ROCK2 = molecular target: T22, ROCK2 (Homo sapiens, UniProt O75116); details: Novartis
T22 construct: purchased DiscoveRx KINOMEscan
Description: as §1

SRC = molecular target: T23, SRC (Homo sapiens, UniProt P12931); details: Novartis
T23 construct: purchased DiscoveRx KINOMEscan
Description: as §1

[1] = molecular target: T24, TYK2(JH1domain-catalytic) (Homo sapiens, UniProt P29597); details: Novartis
T24 construct: TYK2(JH1domain-catalytic)
Description: as §1

Structure (SMILES): N[C@H]1CC[C@H](Nc2cc(-c3cccc(NCc4cccc(F)c4)n3)c(Cl)cn2)CC1 [i-CDK9, N2′-(trans-4-aminocyclohexyl)-5′-chloro-N6-(3-fluorobenzyl)-2,4′-bipyridine-2′,6-diamine]
- IC50 (ALK): > 10 µM
- IC50 (BTK): > 10 µM
- IC50 (CAMK2D): 4 µM
- IC50 (CSK): > 10 µM
- IC50 (EGFR): > 10 µM
- IC50 (EPHA4): > 10 µM
- IC50 (EPHB4): > 10 µM
- IC50 (ERK1): > 10 µM
- IC50 (FAK): > 10 µM
- IC50 (FGFR1): > 10 µM
- IC50 (FGFR3): > 10 µM
- IC50 (FLT3): > 10 µM
- IC50 (KIT): > 10 µM
- IC50 (LCK): > 10 µM
- IC50 (LYN): > 10 µM
- IC50 (MAPKAPK2): > 10 µM
- IC50 (MET): > 10 µM
- IC50 (PAK2): > 10 µM
- IC50 (PCTK2): > 0.079 µM
- IC50 (PCTK3): > 0.45 µM
- IC50 (PDGFRA): > 10 µM
- IC50 (ROCK2): > 10 µM
- IC50 (SRC): > 10 µM
- IC50 [1]: > 10 µM

— paper PMC4490784, “Compensatory induction of MYC expression by sustained CDK9 inhibition via a BRD4-dependent mechanism” (eLife, 2015)
